From paper PMC5666424, “Marine-Derived 2-Aminoimidazolone Alkaloids. Leucettamine B-Related Polyandrocarpamines Inhibit Mammalian and Protozoan DYRK & CLK Kinases” (Marine Drugs, 2017)

What was measured:
Assay in all cases: KinomeScan
Assay type in all cases: binding
Settings in all cases: 1 μM
[1] = biological target: T1, VRK2 (Homo sapiens, UniProt Q86Y07)
T1 construct: purchased DiscoverX (KINOMEscan)
Method: (§1) Assays were performed essentially as described previously. For most assays, kinase-tagged T7 phage strains were grown in parallel in 24-well blocks in an E. coli host derived from the BL21 strain. E. coli were grown to log-phase and infected with T7 phage from a frozen stock (multiplicity of infection ~0.1) and incubated with shaking at 32 °C until lysis (~90 min). The lysates were centrifuged (6000× g) and filtered (0.2 μm) to remove cell debris. The remaining kinases were produced in HEK-293 cells and subsequently tagged with DNA for qPCR detection. […] The liganded beads were blocked with excess biotin and washed with blocking buffer (SeaBlock (Pierce, ThermoFisher Scientific, Illkirch, France), 1% BSA, 0.05% Tween 20, 1 mM DTT) to remove unbound ligand and to reduce non-specific phage binding. […] An 11-point threefold serial dilution of each test compound was prepared in 100% DMSO at 100× final test concentration which and subsequently diluted to 1× in the assay. All reactions were performed in polystyrene 96-well plates in a final volume of 0.135 mL. […] The kinase concentration in the eluates was measured by qPCR.

[2] = biological target: T2, EIF2AK1 (Homo sapiens, UniProt Q9BQI3)
T2 construct: purchased DiscoverX (KINOMEscan)
Method: as §1

[3] = biological target: T3, LIMK1 (Homo sapiens, UniProt P53667)
T3 construct: purchased DiscoverX (KINOMEscan)
Method: as §1

[4] = biological target: T4, MARK1 (Homo sapiens, UniProt Q9P0L2)
T4 construct: purchased DiscoverX (KINOMEscan)
Method: as §1

[5] = biological target: T5, JAK1(JH2domain-pseudokinase) (Homo sapiens, UniProt P23458)
T5 construct: JAK1(JH2domain-pseudokinase); purchased DiscoverX (KINOMEscan)
Method: as §1

[6] = biological target: T6, YES (Homo sapiens, UniProt P07947)
T6 construct: purchased DiscoverX (KINOMEscan)
Method: as §1

[7] = biological target: T7, LKB1 (Homo sapiens, UniProt Q15831)
T7 construct: purchased DiscoverX (KINOMEscan)
Method: as §1

[8] = biological target: T8, BRAF (Homo sapiens, UniProt P15056)
T8 construct: purchased DiscoverX (KINOMEscan)
Method: as §1

[9] = biological target: T9, ANKK1 (Homo sapiens, UniProt Q8NFD2)
T9 construct: purchased DiscoverX (KINOMEscan)
Method: as §1

[10] = biological target: T10, DCAMKL3 (Homo sapiens, UniProt Q9C098)
T10 construct: purchased DiscoverX (KINOMEscan)
Method: as §1

[11] = biological target: T11, CAMKK2 (Homo sapiens, UniProt Q96RR4)
T11 construct: purchased DiscoverX (KINOMEscan)
Method: as §1

[12] = biological target: T12, ACVR1B (Homo sapiens, UniProt P36896)
T12 construct: purchased DiscoverX (KINOMEscan)
Method: as §1

[13] = biological target: T13, CHEK1 (Homo sapiens, UniProt O14757)
T13 construct: purchased DiscoverX (KINOMEscan)
Method: as §1

[14] = biological target: T14, MST2 (Homo sapiens, UniProt Q13188)
T14 construct: purchased DiscoverX (KINOMEscan)
Method: as §1

[15] = biological target: T15, DLK (Homo sapiens, UniProt Q12852)
T15 construct: purchased DiscoverX (KINOMEscan)
Method: as §1

[16] = biological target: T16, SRPK2 (Homo sapiens, UniProt P78362)
T16 construct: purchased DiscoverX (KINOMEscan)
Method: as §1

[17] = biological target: T17, EGFR(S752-I759del) (Homo sapiens, UniProt P00533, DEL752-759)
T17 construct: purchased DiscoverX (KINOMEscan)
Method: as §1

[18] = biological target: T18, EGFR(T790M) (Homo sapiens, UniProt P00533, T790M)
T18 construct: purchased DiscoverX (KINOMEscan)
Method: as §1

[19] = biological target: T19, INSRR (Homo sapiens, UniProt P14616)
T19 construct: purchased DiscoverX (KINOMEscan)
Method: as §1

[20] = biological target: T20, CDK11 (Homo sapiens, UniProt Q9BWU1)
T20 construct: purchased DiscoverX (KINOMEscan)
Method: as §1

[21] = biological target: T21, ABL1-nonphosphorylated (Homo sapiens, UniProt P00519)
T21 construct: purchased DiscoverX (KINOMEscan)
Method: as §1

[22] = biological target: T22, ZAK (Homo sapiens, UniProt Q9NYL2)
T22 construct: purchased DiscoverX (KINOMEscan)
Method: as §1

[23] = biological target: T23, MLK2 (Homo sapiens, UniProt Q02779)
T23 construct: purchased DiscoverX (KINOMEscan)
Method: as §1

[24] = biological target: T24, GRK7 (Homo sapiens, UniProt Q8WTQ7)
T24 construct: purchased DiscoverX (KINOMEscan)
Method: as §1

[25] = biological target: T25, BIKE (Homo sapiens, UniProt Q9NSY1)
T25 construct: purchased DiscoverX (KINOMEscan)
Method: as §1

[26] = biological target: T26, NDR1 (Homo sapiens, UniProt Q15208)
T26 construct: purchased DiscoverX (KINOMEscan)
Method: as §1

[27] = biological target: T27, GCN2(Kin.Dom.2,S808G) (Homo sapiens, UniProt Q9P2K8, S808G)
T27 construct: GCN2(Kin.Dom.2,S808G); purchased DiscoverX (KINOMEscan)
Method: as §1

[28] = biological target: T28, FRK (Homo sapiens, UniProt P42685)
T28 construct: purchased DiscoverX (KINOMEscan)
Method: as §1

[29] = biological target: T29, MST4 (Homo sapiens, UniProt Q9P289)
T29 construct: purchased DiscoverX (KINOMEscan)
Method: as §1

[30] = biological target: T30, BRAF(V600E) (Homo sapiens, UniProt P15056, V600E)
T30 construct: purchased DiscoverX (KINOMEscan)
Method: as §1

[31] = biological target: T31, ABL1(M351T)-phosphorylated (Homo sapiens, UniProt P00519, M351T)
T31 construct: purchased DiscoverX (KINOMEscan)
Method: as §1

[32] = biological target: T32, EGFR(L858R) (Homo sapiens, UniProt P00533, L858R)
T32 construct: purchased DiscoverX (KINOMEscan)
Method: as §1

[33] = biological target: T33, SRC (Homo sapiens, UniProt P12931)
T33 construct: purchased DiscoverX (KINOMEscan)
Method: as §1

[34] = biological target: T34, EPHA2 (Homo sapiens, UniProt P29317)
T34 construct: purchased DiscoverX (KINOMEscan)
Method: as §1

[35] = biological target: T35, FGFR1 (Homo sapiens, UniProt P11362)
T35 construct: purchased DiscoverX (KINOMEscan)
Method: as §1

[36] = biological target: T36, LRRK2(G2019S) (Homo sapiens, UniProt Q5S007, G2019S)
T36 construct: purchased DiscoverX (KINOMEscan)
Method: as §1

Measured: Score

T13 sequence (O14757 whole entry): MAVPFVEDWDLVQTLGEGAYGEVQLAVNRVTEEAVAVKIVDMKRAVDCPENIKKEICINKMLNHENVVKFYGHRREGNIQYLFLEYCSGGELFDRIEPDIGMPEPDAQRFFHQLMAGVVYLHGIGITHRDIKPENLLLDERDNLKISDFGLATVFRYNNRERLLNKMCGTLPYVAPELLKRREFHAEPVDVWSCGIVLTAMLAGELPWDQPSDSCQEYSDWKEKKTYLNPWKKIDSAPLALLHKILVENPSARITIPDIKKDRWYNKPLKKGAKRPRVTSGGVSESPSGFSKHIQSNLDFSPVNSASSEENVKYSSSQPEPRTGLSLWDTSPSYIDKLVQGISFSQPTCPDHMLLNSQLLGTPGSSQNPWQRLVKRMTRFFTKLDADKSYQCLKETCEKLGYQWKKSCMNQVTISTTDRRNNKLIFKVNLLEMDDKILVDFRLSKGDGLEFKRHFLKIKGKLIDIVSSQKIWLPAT
T8 sequence (P15056 whole entry): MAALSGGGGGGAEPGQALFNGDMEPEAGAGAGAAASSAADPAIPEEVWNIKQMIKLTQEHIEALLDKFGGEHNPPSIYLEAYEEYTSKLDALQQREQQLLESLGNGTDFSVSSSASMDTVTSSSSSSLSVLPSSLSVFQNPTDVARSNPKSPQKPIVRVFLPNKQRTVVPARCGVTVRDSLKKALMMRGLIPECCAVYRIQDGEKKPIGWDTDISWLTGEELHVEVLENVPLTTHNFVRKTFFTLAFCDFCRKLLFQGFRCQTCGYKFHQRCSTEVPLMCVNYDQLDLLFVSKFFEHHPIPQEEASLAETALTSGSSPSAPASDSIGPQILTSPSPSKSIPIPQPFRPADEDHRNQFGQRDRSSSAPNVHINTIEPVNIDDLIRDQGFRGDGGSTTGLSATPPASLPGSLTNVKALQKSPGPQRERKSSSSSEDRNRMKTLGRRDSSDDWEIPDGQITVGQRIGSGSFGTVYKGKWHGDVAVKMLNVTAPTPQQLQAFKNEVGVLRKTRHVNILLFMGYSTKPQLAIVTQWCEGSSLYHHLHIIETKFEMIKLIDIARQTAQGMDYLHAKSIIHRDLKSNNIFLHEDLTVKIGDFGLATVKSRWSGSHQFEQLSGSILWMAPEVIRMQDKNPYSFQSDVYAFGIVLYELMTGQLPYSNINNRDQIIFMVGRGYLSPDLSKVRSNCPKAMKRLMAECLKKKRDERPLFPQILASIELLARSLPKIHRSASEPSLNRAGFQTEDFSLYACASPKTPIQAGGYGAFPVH
T25 sequence (Q9NSY1 whole entry): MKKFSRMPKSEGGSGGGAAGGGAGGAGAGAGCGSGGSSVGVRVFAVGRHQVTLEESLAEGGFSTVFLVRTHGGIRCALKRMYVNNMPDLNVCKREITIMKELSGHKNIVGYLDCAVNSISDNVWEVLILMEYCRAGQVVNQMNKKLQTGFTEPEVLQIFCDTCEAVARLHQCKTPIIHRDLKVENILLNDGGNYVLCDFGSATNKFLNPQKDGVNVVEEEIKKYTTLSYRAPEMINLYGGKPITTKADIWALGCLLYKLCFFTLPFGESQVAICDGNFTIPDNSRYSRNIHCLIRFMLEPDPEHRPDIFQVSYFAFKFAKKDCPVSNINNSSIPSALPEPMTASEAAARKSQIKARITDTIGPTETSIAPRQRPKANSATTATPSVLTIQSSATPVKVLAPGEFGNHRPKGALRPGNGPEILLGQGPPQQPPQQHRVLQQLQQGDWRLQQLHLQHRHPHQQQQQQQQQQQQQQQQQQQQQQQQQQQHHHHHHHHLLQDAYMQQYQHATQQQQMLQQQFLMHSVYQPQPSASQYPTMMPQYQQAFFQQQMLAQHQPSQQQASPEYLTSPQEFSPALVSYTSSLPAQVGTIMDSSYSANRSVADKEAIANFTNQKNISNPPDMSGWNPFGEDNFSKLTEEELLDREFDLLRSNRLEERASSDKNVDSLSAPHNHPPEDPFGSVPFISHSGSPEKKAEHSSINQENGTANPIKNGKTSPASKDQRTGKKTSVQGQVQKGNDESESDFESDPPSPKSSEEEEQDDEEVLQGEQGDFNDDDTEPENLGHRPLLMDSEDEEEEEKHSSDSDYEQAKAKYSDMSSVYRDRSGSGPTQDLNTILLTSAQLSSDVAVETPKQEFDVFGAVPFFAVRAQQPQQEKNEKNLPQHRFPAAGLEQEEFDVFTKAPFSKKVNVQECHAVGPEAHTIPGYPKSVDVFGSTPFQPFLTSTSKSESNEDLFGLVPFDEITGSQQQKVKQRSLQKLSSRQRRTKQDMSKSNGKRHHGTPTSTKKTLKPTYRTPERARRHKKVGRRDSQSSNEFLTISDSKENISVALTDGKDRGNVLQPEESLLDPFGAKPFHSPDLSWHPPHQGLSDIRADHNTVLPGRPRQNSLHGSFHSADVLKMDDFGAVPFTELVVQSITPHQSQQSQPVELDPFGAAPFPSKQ
T9 sequence (Q8NFD2 whole entry): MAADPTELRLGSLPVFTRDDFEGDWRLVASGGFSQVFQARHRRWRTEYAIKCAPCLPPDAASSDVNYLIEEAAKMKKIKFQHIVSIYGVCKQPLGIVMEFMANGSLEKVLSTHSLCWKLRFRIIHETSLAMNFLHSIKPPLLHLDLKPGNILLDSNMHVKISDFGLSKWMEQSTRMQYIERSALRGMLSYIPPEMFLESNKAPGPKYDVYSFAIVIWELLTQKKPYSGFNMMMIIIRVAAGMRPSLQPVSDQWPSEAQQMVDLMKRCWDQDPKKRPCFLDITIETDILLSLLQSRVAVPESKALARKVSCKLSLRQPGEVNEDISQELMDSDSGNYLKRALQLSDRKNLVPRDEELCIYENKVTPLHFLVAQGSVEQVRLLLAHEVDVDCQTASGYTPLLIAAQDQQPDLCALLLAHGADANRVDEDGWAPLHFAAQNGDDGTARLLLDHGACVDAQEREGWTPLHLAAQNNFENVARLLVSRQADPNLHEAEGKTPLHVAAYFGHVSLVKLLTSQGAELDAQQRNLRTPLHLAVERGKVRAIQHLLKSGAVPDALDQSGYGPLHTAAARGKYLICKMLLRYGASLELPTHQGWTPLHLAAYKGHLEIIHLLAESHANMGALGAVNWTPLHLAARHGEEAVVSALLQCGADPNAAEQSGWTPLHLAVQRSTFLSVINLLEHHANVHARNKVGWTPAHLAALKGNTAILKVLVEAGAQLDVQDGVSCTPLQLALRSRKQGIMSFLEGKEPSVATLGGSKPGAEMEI
T12 sequence (P36896 24-505): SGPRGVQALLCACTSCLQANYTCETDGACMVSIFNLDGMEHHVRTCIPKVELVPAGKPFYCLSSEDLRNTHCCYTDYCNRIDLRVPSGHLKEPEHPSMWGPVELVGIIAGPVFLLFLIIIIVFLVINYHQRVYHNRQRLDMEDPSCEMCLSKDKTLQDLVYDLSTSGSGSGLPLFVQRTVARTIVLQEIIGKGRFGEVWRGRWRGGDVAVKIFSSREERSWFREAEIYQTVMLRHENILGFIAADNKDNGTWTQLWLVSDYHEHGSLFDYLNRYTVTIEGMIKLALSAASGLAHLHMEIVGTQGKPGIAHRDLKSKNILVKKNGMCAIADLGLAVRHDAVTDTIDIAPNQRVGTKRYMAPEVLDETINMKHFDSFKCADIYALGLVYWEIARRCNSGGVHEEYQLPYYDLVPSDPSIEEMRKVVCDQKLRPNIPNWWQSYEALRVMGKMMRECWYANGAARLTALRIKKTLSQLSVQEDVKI
T23 sequence (Q02779 whole entry): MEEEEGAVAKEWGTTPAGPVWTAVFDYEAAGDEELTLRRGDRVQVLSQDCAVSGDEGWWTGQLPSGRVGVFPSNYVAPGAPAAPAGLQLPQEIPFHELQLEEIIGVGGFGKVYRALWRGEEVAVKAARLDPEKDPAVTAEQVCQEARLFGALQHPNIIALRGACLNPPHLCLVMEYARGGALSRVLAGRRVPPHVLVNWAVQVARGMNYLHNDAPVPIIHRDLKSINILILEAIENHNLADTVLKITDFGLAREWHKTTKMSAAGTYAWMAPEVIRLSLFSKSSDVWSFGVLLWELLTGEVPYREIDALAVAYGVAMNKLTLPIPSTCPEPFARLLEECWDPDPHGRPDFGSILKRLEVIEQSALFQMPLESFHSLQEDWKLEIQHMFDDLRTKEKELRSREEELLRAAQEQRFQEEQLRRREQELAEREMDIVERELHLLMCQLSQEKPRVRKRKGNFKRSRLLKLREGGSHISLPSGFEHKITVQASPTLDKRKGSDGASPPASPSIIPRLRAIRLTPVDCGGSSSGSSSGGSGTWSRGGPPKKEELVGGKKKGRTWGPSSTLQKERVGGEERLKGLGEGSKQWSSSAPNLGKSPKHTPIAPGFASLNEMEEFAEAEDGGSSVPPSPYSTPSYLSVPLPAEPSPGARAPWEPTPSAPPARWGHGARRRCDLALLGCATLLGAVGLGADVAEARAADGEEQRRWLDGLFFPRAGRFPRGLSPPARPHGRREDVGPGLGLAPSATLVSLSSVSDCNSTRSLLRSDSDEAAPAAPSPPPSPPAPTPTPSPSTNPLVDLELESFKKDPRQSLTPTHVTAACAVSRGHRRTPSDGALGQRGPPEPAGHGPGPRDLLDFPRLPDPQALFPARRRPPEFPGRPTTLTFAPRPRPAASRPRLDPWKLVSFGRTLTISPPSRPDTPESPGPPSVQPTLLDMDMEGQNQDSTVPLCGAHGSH
T30 sequence (P15056 whole entry V600E): as the sequence (P15056 whole entry) above, with V600E counted along it
T29 sequence (Q9P289 whole entry): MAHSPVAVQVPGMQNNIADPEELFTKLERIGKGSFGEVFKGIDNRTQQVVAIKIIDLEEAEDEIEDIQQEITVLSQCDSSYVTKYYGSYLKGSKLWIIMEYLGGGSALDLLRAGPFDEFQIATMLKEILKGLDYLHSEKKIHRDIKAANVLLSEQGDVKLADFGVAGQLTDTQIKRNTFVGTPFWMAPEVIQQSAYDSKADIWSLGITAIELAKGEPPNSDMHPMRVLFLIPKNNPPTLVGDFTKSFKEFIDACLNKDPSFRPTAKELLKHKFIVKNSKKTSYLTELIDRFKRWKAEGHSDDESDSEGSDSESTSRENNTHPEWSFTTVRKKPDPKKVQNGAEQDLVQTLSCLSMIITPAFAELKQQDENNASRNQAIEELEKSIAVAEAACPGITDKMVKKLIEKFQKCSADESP

COc1cc(/C=C2\N=C(N)NC2=O)ccc1O [Polyandrocarpamine A]
95: [22]
100: [1] | [2] | [3] | [4] | [6] | [7] | [8] | [9] | [13] | [14] | [15] | [16] | [17] | [20] | [23] | [24] | [26] | [28] | [29] | [31] | [33] | [34] | [35] | [36]
93: [18] | [32]
92: [5]
96: [30]
90: [21] | [27]
94: [10] | [11]
81: [12] | [19]
70: [25]
